Read-outs that look alike come from different tables or passages of the source. Values belong to the compound of their own block, whether it stands above or below them.
How the values were obtained:
FABP1 [1] = target: FABP1; set-up: method as in PMID 8940102; conditions: rat protein, cited from earlier work
FABP1 [2] = target: T1, FABP1 (Homo sapiens, UniProt P07148); assay: DAUDA displacement fluorescence titrations of DAUDA–FABP1 with fatty acids, fit in KinTek Explorer; assay type: binding
T1 construct: GST (N, cleaved yes); made in house; host or cells: Escherichia coli DH5α
T1 sequence (P07148 with tags, fused parts or gaps): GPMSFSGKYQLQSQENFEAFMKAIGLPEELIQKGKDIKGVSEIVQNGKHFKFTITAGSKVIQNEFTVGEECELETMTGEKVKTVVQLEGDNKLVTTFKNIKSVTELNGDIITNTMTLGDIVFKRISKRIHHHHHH
Source text: The FABP–DAUDA system was used to screen saturated fatty acids (C12 to C18) for binding to FABP, and the Kd values were estimated in competition with the fluorophore (using its known Kd) with the kinetic modeling software KinTek Explorer. The general model is shown in Fig. 5A, where the substrate is competed against the fluorescent DAUDA–FABP1 complex for binding, yielding a ternary DAUDA–FABP1–substrate complex that is accompanied by an attenuation in fluorescence.
Figure 5 Fluorescence titrations of DAUDA–FABP1 with fatty acids (“forward” titrations).A, model of all binding equilibria accounted for in the DAUDA displacement assays. In the fluorescence assays (λex = 335 nm), DAUDA (D) binds to FABP1 (F) to form a fluorescent (indicated with yellow flash) complex (FD), with which a lipid (S) is then competed against for binding. The binding of S attenuates the fluorescence (denoted with a smaller yellow flash) and forms a ternary complex (FDS). High concentrations of S may completely displace D to form FSS, a spectroscopically silent complex. Using this method, fluorescence titrations were carried out with the fatty acids (B) laurate, (C) myristate, (D) palmitate, (E) 16-hydroxypalmitate, and (F) stearate. Fluorescence at the emission maximum (482 nm) was monitored (as in Fig. 4) and normalized to the starting fluorescence (i.e., the FD complex prior to the addition of S). Each data point corresponds to one independent replicate. DAUDA, 11-dansylaminoundecanoic acid; FABP1, fatty acid binding protein.
For the titrations with lipids, solutions of FABP1 (0.5 μM) and DAUDA (0.25 μM) were prepared such that the fluorescent species was not present in excess ([75]). A baseline was recorded with phosphate buffer, and a starting (basis) spectrum was recorded of the FABP–DAUDA complex (1 ml). The lipid solutions were gradually added to the cuvette with gentle mixing (pipetting up and down ∼7× with a pipette tip), and spectra were recorded (Fig. S12A). Control titrations were also performed the same day with solvent alone (Fig. S12B) as a normalizing factor for the lipid titrations as fluorescence attenuation was also observed to a much lesser degree as a solvent effect (Fig. S12C, D). […] The data were processed such that within the lipid titration and the solvent titration, the F482 values were normalized to the starting value (the initial FABP1–DAUDA complex with nothing added, set to 100%). The relative fluorescence of the lipid titration was then normalized to the relative fluorescence of the solvent titration to adjust for fluorescence attenuation observed in the solvent titration (presumably from altering the fluorophore environment). Thus, the data were processed according to y=(F482/F482(initial))lipid/(F482/F482(initial))solvent , and the resulting values were plotted as a function of lipid concentration (Fig. S12E). The curve was imported into KinTek Explorer ([76]) and was fit to a kinetic model (Fig. S13) to determine the Kd values (Table 1). Within the KinTek software, all fluorescent species required fluorescence scaling factors to convert signal to concentration. Scaling factors for the FABP–DAUDA complex, FABP–DAUDA–lipid complex, and DAUDA alone were 460, 92, and 8, respectively.
Figure S12. Data processing for FABP1 titration with palmitate. Fluorescence spectrum of increasing additions of (A) palmitate (0-2 µM, added in C2H5OH) and (B) C2H5OH to a mixture of DAUDA (0.25 µM) and FABP1 (0.5 µM), performed as described in the Experimental Methods (see “Titrations of FABP1 with lipids, DAUDA”). C, fluorescence values at 482 nm (F482) from the titrations presented in parts A and B are normalized to the starting values (DAUDA-FABP1 complex, no volume added). Data are reported as a function of volume of titrant added to the cuvette (black, C2H5OH alone; red, palmitate in C2H5OH). […]

FABP3 = target: FABP3; set-up: method as in PMID 11170430; conditions: human heart FABP (FABP3); cited from earlier work
FABP1 [3] = target: T1, FABP1; set-up: method as in PMID 10852718; conditions: ADIFAB system; cited from earlier work
FABP1 [4] = target: T1, FABP1; conditions: human FABP1, fluorescence displacement assay; read-out: Kd; cited from earlier work
FABP1 [5] = target: FABP1; set-up: method as in PMID 8541331; conditions: bovine protein, cited from earlier work
[6] = high-affinity site, read-out: Kd,1
[7] = low-affinity site, read-out: Kd,2
[8] = lipid binding to DAUDA-bound FABP1 (DAUDA displacement), read-out: Kd, FD + S ↔ FDS
[9] = lipid binding to apo-FABP1, estimated via kinetic modeling, read-out: Kd, F + S ↔ FS
[10] = lipid binding to ternary complex FDS (full displacement of DAUDA), low-affinity site, read-out: Kd, FDS + S ↔ FSS + D

SMILES: CCCCC/C=C\C/C=C\CCCCCCCC(=O)O [linoleate]
Kd (FABP1 [1]; [6]): ~0.01 µM | Kd (FABP1 [1]; [7]): ~0.2 µM

SMILES: CCCCCCCCCCCCCC(=O)O [Myristate (C14), myristate]
Kd (FABP1 [2]; [8]): 0.86 µM | Kd (FABP1 [2]; [9]): 2.6 µM | Kd (FABP1 [2]; [10]): 43 µM | remaining activity at 0.01 µM (FABP1 [2]; read-out: % Fluorescence): 98.3% | remaining activity at 0.03 µM (FABP1 [2]; read-out: % Fluorescence): 99.1% | remaining activity at 0.06 µM (FABP1 [2]; read-out: % Fluorescence): 98.2% | remaining activity at 0.1 µM (FABP1 [2]; read-out: % Fluorescence): 97.3% | remaining activity at 0.3 µM (FABP1 [2]; read-out: % Fluorescence): 92.9% | remaining activity at 0.6 µM (FABP1 [2]; read-out: % Fluorescence): 81% | remaining activity at 1 µM (FABP1 [2]; read-out: % Fluorescence): 71.9% | remaining activity at 3 µM (FABP1 [2]; read-out: % Fluorescence): 42.2% | remaining activity at 6 µM (FABP1 [2]; read-out: % Fluorescence): 25.9% | remaining activity at 10 µM (FABP1 [2]; read-out: % Fluorescence): 18.2% | remaining activity at 30 µM (FABP1 [2]; read-out: % Fluorescence): 13.1% | koff (FABP1 [2]; read-out: koff, F + S ↔ FS): 240 s⁻¹ | koff (FABP1 [2]; read-out: koff, FD + S ↔ FDS): 20 s⁻¹ | koff (FABP1 [2]; read-out: koff, FDS + S ↔ FSS + D): 980 s⁻¹

SMILES: CCCCC/C=C\C/C=C\C/C=C\C/C=C\CCCC(=O)O [arachidonate]
Kd (FABP3): ~0.05 µM

% Fluorescence (FABP1 [2]; lipid 1 µM, FABP1 0.5 µM, DAUDA 0.25 µM, F482 normalized): 94.95% | % Fluorescence (FABP1 [2]; lipid 2 µM, FABP1 0.5 µM, DAUDA 0.25 µM, F482 normalized): 89.77% | % Fluorescence (FABP1 [2]; lipid 3.5 µM, FABP1 0.5 µM, DAUDA 0.25 µM, F482 normalized): 89.03% | % Fluorescence (FABP1 [2]; lipid 5 µM, FABP1 0.5 µM, DAUDA 0.25 µM, F482 normalized): 85.89% | % Fluorescence (FABP1 [2]; lipid 7.5 µM, FABP1 0.5 µM, DAUDA 0.25 µM, F482 normalized): 85.69% | % Fluorescence (FABP1 [2]; lipid 10 µM, FABP1 0.5 µM, DAUDA 0.25 µM, F482 normalized): 75.3% | % Fluorescence (FABP1 [2]; lipid 20 µM, FABP1 0.5 µM, DAUDA 0.25 µM, F482 normalized): 57.47% | % Fluorescence (FABP1 [2]; lipid 35 µM, FABP1 0.5 µM, DAUDA 0.25 µM, F482 normalized): 47.27% | % Fluorescence (FABP1 [2]; lipid 50 µM, FABP1 0.5 µM, DAUDA 0.25 µM, F482 normalized): 41.27% | % Fluorescence (FABP1 [2]; lipid 75 µM, FABP1 0.5 µM, DAUDA 0.25 µM, F482 normalized): 35.15% | % Fluorescence (FABP1 [2]; lipid 100 µM, FABP1 0.5 µM, DAUDA 0.25 µM, F482 normalized): 31.33% | % Fluorescence (FABP1 [2]; lipid 125 µM, FABP1 0.5 µM, DAUDA 0.25 µM, F482 normalized): 28.58% | % Fluorescence (FABP1 [2]; lipid 150 µM, FABP1 0.5 µM, DAUDA 0.25 µM, F482 normalized): 29.65% | % Fluorescence (FABP1 [2]; lipid 200 µM, FABP1 0.5 µM, DAUDA 0.25 µM, F482 normalized): 27.61% | % Fluorescence (FABP1 [2]; lipid 300 µM, FABP1 0.5 µM, DAUDA 0.25 µM, F482 normalized): 25.74% | % Fluorescence (FABP1 [2]; lipid 400 µM, FABP1 0.5 µM, DAUDA 0.25 µM, F482 normalized): 23.15% | koff, F + S ↔ FS (FABP1 [2]; lipid (S) binding to apo-FABP1 (F), kinetic modeling, on-rate 9.0 × 10^7 M^−1 s^−1): 2700 s⁻¹ | Kd (FABP1 [2]; [8]): 18 µM | koff, FD + S ↔ FDS (FABP1 [2]; lipid binding to DAUDA-bound FABP1 (FD), on-rate 2.3 × 10^7 M^−1 s^−1): 410 s⁻¹ | Kd (FABP1 [2]; [9]): 30 µM | Kd (FABP1 [2]; [10]): > 1000 µM
SMILES: CCCCCCCCCCCC(=O)O [Laurate (C12), laurate]

remaining activity at 0.01 µM (FABP1 [2]; lipid 0.01 µM, FABP1 0.5 µM, DAUDA 0.25 µM, F482 normalized, read-out: % Fluorescence): 92.3% | remaining activity at 0.025 µM (FABP1 [2]; lipid 0.025 µM, FABP1 0.5 µM, DAUDA 0.25 µM, F482 normalized): 92.5% | remaining activity at 0.05 µM (FABP1 [2]; lipid 0.05 µM, FABP1 0.5 µM, DAUDA 0.25 µM, F482 normalized): 87.6% | remaining activity at 0.075 µM (FABP1 [2]; lipid 0.075 µM, FABP1 0.5 µM, DAUDA 0.25 µM, F482 normalized): 81.3% | remaining activity at 0.1 µM (FABP1 [2]; lipid 0.1 µM, FABP1 0.5 µM, DAUDA 0.25 µM, F482 normalized, read-out: % Fluorescence): 78.3% | remaining activity at 0.15 µM (FABP1 [2]; lipid 0.15 µM, FABP1 0.5 µM, DAUDA 0.25 µM, F482 normalized): 69.4% | remaining activity at 0.2 µM (FABP1 [2]; lipid 0.2 µM, FABP1 0.5 µM, DAUDA 0.25 µM, F482 normalized): 61% | remaining activity at 0.25 µM (FABP1 [2]; lipid 0.25 µM, FABP1 0.5 µM, DAUDA 0.25 µM, F482 normalized): 54.2% | remaining activity at 0.35 µM (FABP1 [2]; lipid 0.35 µM, FABP1 0.5 µM, DAUDA 0.25 µM, F482 normalized): 44.4% | remaining activity at 0.45 µM (FABP1 [2]; lipid 0.45 µM, FABP1 0.5 µM, DAUDA 0.25 µM, F482 normalized): 37.1% | remaining activity at 0.6 µM (FABP1 [2]; lipid 0.6 µM, FABP1 0.5 µM, DAUDA 0.25 µM, F482 normalized, read-out: % Fluorescence): 31.3% | remaining activity at 0.9 µM (FABP1 [2]; lipid 0.9 µM, FABP1 0.5 µM, DAUDA 0.25 µM, F482 normalized): 24.2% | remaining activity at 1.15 µM (FABP1 [2]; lipid 1.15 µM, FABP1 0.5 µM, DAUDA 0.25 µM, F482 normalized): 24.1% | remaining activity at 1.4 µM (FABP1 [2]; lipid 1.4 µM, FABP1 0.5 µM, DAUDA 0.25 µM, F482 normalized): 23.6% | remaining activity at 1.9 µM (FABP1 [2]; lipid 1.9 µM, FABP1 0.5 µM, DAUDA 0.25 µM, F482 normalized): 23.3% | koff (FABP1 [2]; lipid (S) binding to apo-FABP1 (F), kinetic modeling, on-rate 9.0 × 10^7 M^−1 s^−1, read-out: koff, F + S ↔ FS): 6.2 s⁻¹ | Kd (FABP1 [2]; [8]): 0.021 µM | koff (FABP1 [2]; lipid binding to DAUDA-bound FABP1 (FD), on-rate 2.3 × 10^7 M^−1 s^−1, read-out: koff, FD + S ↔ FDS): 0.48 s⁻¹ | Kd (FABP1 [2]; [9]): 0.069 µM | Kd (FABP1 [2]; [10]): 34 µM | koff (FABP1 [2]; lipid binding to ternary complex FDS (full displacement of DAUDA), read-out: koff, FDS + S ↔ FSS + D): 770 s⁻¹
SMILES: CCCCCCCCCCCCCCCCCC(=O)O [Stearate (C18), stearate]
Kd (FABP1 [3]): 0.023 µM | Kd (FABP1 [4]): 0.029 ± 0.002 µM

SMILES: O=C(O)CCC/C=C\C/C=C\C/C=C\C/C=C\CCCCCO [20-HETE, 20-hydroxyeicosatetraenoic acid]
Kd (FABP3): ~0.44 µM

SMILES: CCCCCCCC/C=C\CCCCCCCC(=O)O [oleate]
Kd (FABP1 [5]; [6]): 0.26 µM | Kd (FABP1 [5]; [7]): > 5 µM

— article PMC11847541, “Liver fatty acid binding protein FABP1 transfers substrates to cytochrome P450 4A11 for catalysis” (The Journal of Biological Chemistry, 2025)
